Data as given in US10039798B2, “Extracts of rosemary or hemerocallis fulva and methods of using same to promote circadian rhythm” (IN Ingredients, Inc., priority 2013, dated 2018).

Columns and labels:
Type in all cases: cell-based, Porcine
Settings in all cases: 1 μM, 5 μM or 20 μM, 24 hr at 37° C.
CLOCK = CLOCK immunofluorescence in iPEC-1 cells treated with ursolic acid
Description: (§1) iPEC-1 cells were grown as a monolayer in DMEM with 10% fetal bovine serum (FBS) and the necessary supplements at 37° C. in a humidified incubator with 5% CO2. iPEC1 cells were seeded on 35 mm dishes. Experiments were initiated 48 hr after plating. Cells were treated with saline or with ursolic acid at three separate dosages (1 μM; 5 μM; or 20 μM) in the medium for 24 hr at 37° C. The cells were then washed with ice-cold PBS and fixed with 4% paraformaldehyde for 10 min at room temperature followed by permeabilization with 0.3% Triton X-100 for 10 min. After being washed with PBS three times, cells were incubated for 1 hr in PBS containing 10% normal goat serum blocking solution. The cells were subjected to immunofluorescence staining with the target specific antibodies (SIRT1, CLOCK and Bmal1) overnight at 4° C. The cells were then washed with cold PBS three times for 3 min each, and incubated with Alexa-labeled secondary antibodies (Invitrogen) at room temperature for 1 h. The cells were examined by fluorescence microscopy (a Nikon TE2000-S microscope, Nikon, Tokyo, Japan).

SIRT1 = SIRT1 immunofluorescence in iPEC-1 cells treated with ursolic acid
Description: as §1

Bmal1 = Bmal1 immunofluorescence in iPEC-1 cells treated with ursolic acid
Description: as §1

C[C@H]1[C@H](C)CC[C@]2(C(=O)O)CC[C@]3(C)C(=CC[C@@H]4[C@@]5(C)CC[C@H](O)C(C)(C)[C@@H]5CC[C@]43C)[C@H]12 [ursolic acid]
intensity of immunofluorescence of CLOCK compared with controls (CLOCK): significantly induced the intensity of immunofluorescence | intensity of immunofluorescence of SIRT1 compared with controls (SIRT1): significantly induced the intensity of immunofluorescence | intensity of immunofluorescence of Bmal1 compared with controls (Bmal1): significantly induced the intensity of immunofluorescence
